Where no end group is shown, it is not given here.
Assays:
[1] = system: mononuclear cells isolated from the bone marrow (BM) of C57BL/6 mice; assay: In vitro induction of DC from bone marrow mononuclear cells, phenotype and cytokine production; format: cell-based; details: for CD11c+/CD86+ in total BM cells: 7 day incubation of BM cells with GM-CSF with or without the named factor; for expression of the proinflammatory cytokines IL-6 and IL-12 by induced DC: GM-CSF in presence of named factor, bacterial stimulation, vs DC induced by GM-CSF alone
From the text: FIGS. 5F (Table 1) and 5A-E reflect the potency of a material system that delivers TSLP and GM-CSF to PD lesion in induction of tolerogenic DC. […] The surface phenotypes of CD11c+DC in the BM culture were monitored by flow cytometry and the proportionality of each phenotype is expressed as a percent (%) of the total mononuclear cells (MNC) (FIG. 5F, Table 1).
The present invention provides for a material-based local application of GM-CSF with appropriate DC influencing factors that leads to tolerogenic DCs (tDCs), and subsequent enrichment of iTreg cells. Candidate biofactors include thymic stromal lymphopoietin (TSLP), vasoactive intestinal peptide (VIP), and transforming growth factor-beta (TGF-β). Screening is based on the induced DC's anti-inflammatory properties. […] Overall, these observations that the combination of GM-CSF with TSLP efficiently induces DC with an anti-inflammatory phenotype.

CD11c(+)CD86(+) DCs = assay: In vivo DC recruitment to subcutaneously implanted GM-CSF loaded polymers; design: species or system C57BL/6J mice; details: polymers loaded with 3 μg GM-CSF
From the text: (§1) Numbers in FACS plots indicate the percentage of the cell population positive for both markers. FIG. 4D is the percentage of total cells that were positive for the DC markers CD11c and CD86, in blank (-∘-) and GM-CSF (-●-) loaded polymers as a function of time post implantation. […] Scale bar—500 μm. Values in FIGS. 4A, 4D, 4E, and 4F represent mean and standard deviation (n=4 or 5); *P<0.05; **P<0.01.
(§2) The polymer delivery vehicle presents GM-CSF in a defined spatiotemporal manner in vivo, following introduction into the tissue of interest. […]
Gels with various combinations of factors are injected into gingival of mice. […] To analyze DC recruitment, gels and surrounding tissue are excised at various time-points and the tissue digested into single cell suspensions using a collagenase solution (Worthingtion, 250 U/ml) that was agitated at 37° C. for 45 min The cell suspensions are then poured through a […] cell strainer to isolate cells from gel particles and the cells are pelleted and washed with cold PBS and counted using a Z2 coulter counter (Beckman Coulter). […] Cells are gated according to positive labels using isotype controls, and the percentage of cells staining positive for each surface antigen is recorded.

[2] = Release profile of GM-CSF from polymer delivery vehicle; format: physicochemical; details: within the first 5 days; then slow sustained release over next 10 days
From the text: as §1, §2
To determine the efficiency of GM-CSF, TSLP, and pDNA incorporation and the kinetics of release, ^125I-labeled factors (Perkin Elmer) are utilized as a tracer, and gels and placed in Phosphate Buffer Solution (PBS) (37° C.). At various time points, the PBS release media is collected and amount of ^125I-factor released from the scaffolds is determined at each time point using a gamma counter and normalizing to the total ^125I-factor incorporated into the gels. To asses the retention of GM-CSF bioactivity, loaded gels are placed in the top wells of 6.5 mm transwell dishes (Costar, Cambridge, Mass.) with a pore size of 3 μm and the proliferation of JAWS II cells (DC cell line) cultured in the bottom wells is evaluated at various time points using cell counts from a hemacytometer. […]

JAWSII DCs = assay: JAWSII DC recruitment, proliferation, emigration and activation in vitro (transwell); format: cell-based
Method: FIGS. 3A-D show data related to the concentration dependent effects of GM-CSF on DC proliferation, recruitment, activation and emigration in vitro. […] Migration counts measured at 12 hours. FIG. 3B is the effects of GM-CSF concentration on the proliferation of JAWSII DCs. 0 (white bar), 50 (grey bar), and 500 ng/ml (black bar) of GM-CSF. […] Migration counts taken at 6 hours. FIG. 3D are representative photomicrographs of TNF-α and LPS stimulated JAWSII DCs cultured in 5-50 or 500 ng/ml GM-CSF and stained for the activation markers MHCII and CCR7. Scale bar in FIG. 3D—20 μm. Values in FIGS. 3A-C represent mean and standard deviation (n=4); *P<0.05; **P<0.01
Migration assays are performed with 6.5 mm transwell dishes (Costar, Cambridge, Mass.) with a pore size of 5 μm. The effects of GM-CSF and TSLP, (Invivogen, San Diego, Calif.) on the migration of DCs are assessed by placing recombinant murine GM-CSF and TSLP in the bottom wells and 5×10^5 DCs in the top wells. To assess the effects of GM-CSF and TSLP on DC activation, cells are cultured with bacterial stimulation (fixed Aa, fixed P. gingivalis, Aa-LPS or Pg-LPS along) with various concentrations of TSLP and GM-CSF for 24 hours and then the cells are washed and fixed in 10% formalin. The cells are prepared for fluorescence immunohistochemistry as per below, and examined using fluorescent microscopy (Olympus, Center Valley, Pa.). Cells are also analyzed by FACS, and gated according to positive stains using isotype controls, and the percentage of cells staining positive for each surface antigen will be recorded.

[3] = molecular target: T1, T cell-specific potassium channel Kv1.3 (Rattus norvegicus, UniProt P15384); details: cited from earlier work
T1 construct: endogenous in cells
T1 sequence (P15384 whole entry): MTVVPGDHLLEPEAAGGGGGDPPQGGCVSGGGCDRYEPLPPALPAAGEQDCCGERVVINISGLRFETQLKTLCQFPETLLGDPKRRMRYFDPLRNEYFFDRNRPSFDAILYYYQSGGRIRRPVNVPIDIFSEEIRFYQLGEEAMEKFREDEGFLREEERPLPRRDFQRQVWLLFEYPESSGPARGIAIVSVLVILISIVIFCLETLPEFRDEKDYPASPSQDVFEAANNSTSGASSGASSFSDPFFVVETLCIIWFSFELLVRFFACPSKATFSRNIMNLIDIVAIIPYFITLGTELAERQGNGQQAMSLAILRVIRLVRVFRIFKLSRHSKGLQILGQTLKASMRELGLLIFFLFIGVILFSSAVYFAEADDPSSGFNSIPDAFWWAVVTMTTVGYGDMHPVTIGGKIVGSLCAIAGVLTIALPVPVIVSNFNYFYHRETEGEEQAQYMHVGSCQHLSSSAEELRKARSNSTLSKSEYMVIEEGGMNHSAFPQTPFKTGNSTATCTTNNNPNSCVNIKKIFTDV

For transforming growth factor-beta [TGF-b], the “CD11c+/CD86+ in total BM cells” value [1] was 10.5% and the “expression of the proinflammatory cytokines IL-6 and IL-12 by induced DC” value (from here on “expression … by induced DC”) [1] was “diminished expression”.

With “granulocyte-macrophage colony stimulating factor [GM-CSF]” the “total cellular infiltration at the site” value (CD11c(+)CD86(+) DCs; dorsal subcutaneous, day-14, vs control) was “significantly enhanced”, the “total cell number and percentage of infiltrating cells that were CD11c(+)CD86(+) DCs” value (CD11c(+)CD86(+) DCs; subcutaneous) was “increased” and the “CD11c+/CD86+ in total BM cells” value [1] was 14.7%. The “bioactive GM-CSF load released” value [2] was “approximately 60%”, the “DC recruitment and proliferation” value (JAWSII DCs; JAWSII DCs in vitro) was “enhanced DC recruitment and proliferation in a dose-dependent manner” and the “DC activation via TNF-α and LPS stimulation (MHCII and CCR7 expression)” value (JAWSII DCs; high concentrations of GM-CSF) was “suppressed DC activation”. The “GM-CSF concentrations that inhibited DC migration toward the LN-derived chemokine CCL19” value (JAWSII DCs; transwell, 300 ng/ml CCL19, counts at 6 hours) was greater than 100 ng/mL.

In the case of Kaliotoxin, the “RANKL production by activated rat T cells” value [3] is listed as “inhibits”.

In the case of thymic stromal lymphopoietin [TSLP], the “expression … by induced DC” value [1] is reported as “diminished expression”.

For “vasoactive intestinal peptide (HSDAVFTDNYTRLRKQMAVKKYLNSILN; ends and bridges not checked; UniProt P01282 125-152, looked up) [VIP, candidate biofactor tested with GM-CSF]”, the “IL-10 production by induced DC” value ([1]; BM cells with GM-CSF and named factor (100 ng/ml), 7 days, bacterial challenge) was “did not up-regulate” and the “expression … by induced DC” value [1] was “diminished expression”.

From patent US10080789B2, “Programming of cells for tolerogenic therapies” (President and Fellows of Harvard College, priority 2009, dated 2018)
